Measurements published in ChEMBL document CHEMBL5052833, “Ube2k modulators and methods for their use” (2021).
The source made the active and inactive calls. The rule behind the calls is not given here.

What was measured:
[1] = target: T1, Ubiquitin-conjugating enzyme E2 K (Homo sapiens) (UniProt P61086); experiment: Stabilization of mono-ubiquitinated UBE2K (unknown origin) at 0.4 to 100 uM assessed as decrease in poly-Ub measured by poly-ubiquitination assay; details: dose 0.4-100 µM
T1 sequence (whole entry): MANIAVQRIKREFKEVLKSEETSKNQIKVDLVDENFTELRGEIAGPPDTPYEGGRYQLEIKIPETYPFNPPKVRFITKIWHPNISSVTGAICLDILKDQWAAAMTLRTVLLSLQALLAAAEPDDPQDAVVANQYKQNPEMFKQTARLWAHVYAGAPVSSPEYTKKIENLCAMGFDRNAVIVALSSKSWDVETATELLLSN

[2] = target: T1, Ubiquitin-conjugating enzyme E2 K (Homo sapiens); experiment: Stabilization of UBE2K (unknown origin) at 1 to 1000 uM assessed as modulation of ubiquitin discharge measured by ELISA assay; details: dose 1-1000 µM
[3] = target: T1, Ubiquitin-conjugating enzyme E2 K (Homo sapiens); experiment: Stabilization of mono-ubiquitinated UBE2K (unknown origin) at 500 uM assessed as decrease in poly-Ub measured by poly-ubiquitination assay
Homo sapiens [4] = organism: Homo sapiens; experiment: Stabilization of mono-ubiquitinated UBE2D4 (unknown origin) at 500 uM assessed as decrease in poly-Ub measured by poly-ubiquitination assay
[5] = target: Ubiquitin-conjugating enzyme E2 E1 (Homo sapiens) (UniProt P51965); experiment: Stabilization of mono-ubiquitinated UBE2E1 (unknown origin) at 500 uM assessed as decrease in poly-Ub measured by poly-ubiquitination assay
Homo sapiens [6] = organism: Homo sapiens; experiment: Stabilization of mono-ubiquitinated UBE2Q2 (unknown origin) at 500 uM assessed as decrease in poly-Ub measured by poly-ubiquitination assay
Homo sapiens [7] = organism: Homo sapiens; experiment: Stabilization of mono-ubiquitinated UBE2S (unknown origin) at 500 uM assessed as decrease in poly-Ub measured by poly-ubiquitination assay
Homo sapiens [8] = organism: Homo sapiens; experiment: Stabilization of mono-ubiquitinated UBE2W (unknown origin) at 500 uM assessed as decrease in poly-Ub measured by poly-ubiquitination assay
[9] = target: T1, Ubiquitin-conjugating enzyme E2 K (Homo sapiens); experiment: Stabilization of mono-ubiquitinated UBE2K (unknown origin) at 0.25 to 25 uM assessed as decrease in poly-Ub measured by poly-ubiquitination assay; details: dose 0.25-25 µM
MV4-11 [10] = experiment: Antitumor activity against human MV4-11 cells xenografted nude mouse assessed as tumor growth inhibition at 75 mg/kg, po administered twice a day for 24 days; format: functional; details: MV4-11, po, 576 h, time 24 day, read-out: TGI
MV4-11 [11] = experiment: Antitumor activity against human MV4-11 cells xenografted nude mouse assessed as tumor growth inhibition at 150 mg/kg, po administered twice a day for 24 days; format: functional; details: MV4-11, po, 576 h, time 24 day, read-out: TGI
K562 [12] = experiment: Antitumor activity against human K562 cells xenografted female SCID Bg mouse assessed as tumor growth inhibition at 25 mg/kg, po administered twice a day for 12 consecutive days and measured on day 10; format: functional; details: 240 h, time 10 day, read-out: TGI
K562 [13] = experiment: Antitumor activity against human K562 cells xenografted female SCID Bg mouse assessed as tumor growth inhibition at 25 mg/kg, po administered twice a day for 12 consecutive days and measured on day 12; format: functional; details: 288 h, time 12 day, read-out: TGI
[14] = target: T1, Ubiquitin-conjugating enzyme E2 K (Homo sapiens); experiment: Stabilization of mono-ubiquitinated UBE2K (unknown origin) at 0.25 to 50 uM assessed as decrease in poly-Ub measured by poly-ubiquitination assay; details: dose 0.25-50 µM
[15] = target: T1, Ubiquitin-conjugating enzyme E2 K (Homo sapiens); experiment: Stabilization of mono-ubiquitinated UBE2K (unknown origin) at 16 to 100 uM assessed as decrease in poly-Ub measured by poly-ubiquitination assay; details: dose 16-100 µM

Ubiquitin-conjugating enzyme E2 E1 (Homo sapiens), sequence (P51965 whole entry): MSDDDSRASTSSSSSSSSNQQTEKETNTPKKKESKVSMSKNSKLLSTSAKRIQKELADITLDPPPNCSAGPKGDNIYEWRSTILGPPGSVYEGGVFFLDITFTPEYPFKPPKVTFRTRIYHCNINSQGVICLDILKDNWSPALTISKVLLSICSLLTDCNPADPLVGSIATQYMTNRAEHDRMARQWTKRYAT

| SMILES | Activity [1] | Activity [2] | Activity [3] | Activity (Homo sapiens [4]) | Activity [5] | Activity (Homo sapiens [6]) | Activity (Homo sapiens [7]) | Activity (Homo sapiens [8]) | other results |
| --- | --- | --- | --- | --- | --- | --- | --- | --- | --- |
| O=C(NCc1cc(-c2ccccc2O)[nH]n1)c1ccccc1OC(F)(F)F | Active | Active |  |  |  |  |  |  |  |
| COc1ccccc1-c1cc(CNC(=O)c2ccccc2OC(F)(F)F)n[nH]1 | Active | Active | Active | inactive | inactive | inactive | inactive | inactive |  |
| O=C(NCc1cc(-c2cccs2)[nH]n1)c1ccccc1OC(F)F |  |  |  |  |  |  |  |  | Activity [9]: Active |
| COc1ccccc1-c1nc(CNC(=O)c2cc(C#N)ccc2OC(F)F)n[nH]1 |  | Active |  |  |  |  |  |  |  |
| COc1ccc(F)cc1-c1nc(CNC(=O)c2cccc3c2OC(F)(F)O3)n[nH]1 |  | Active |  |  |  |  |  |  | inhibition in vivo at 75 mg/kg (MV4-11 [10]): 43%; inhibition in vivo at 150 mg/kg (MV4-11 [11]): 37% |
| COc1ccc(F)cc1-c1nc(CNC(=O)c2cc(F)ccc2OC(F)(F)F)n[nH]1 |  |  |  |  |  |  |  |  | inhibition in vivo at 25 mg/kg (K562 [12]): 73.6%; inhibition in vivo at 25 mg/kg (K562 [13]): 86.3% |
| COc1ccc(F)cc1-c1nc(CNC(=O)c2ccccc2OC(F)F)n[nH]1 |  |  | Active | inactive | inactive | inactive | inactive | inactive |  |
| O=C(NCc1cc(-c2cccs2)[nH]n1)c1ccccc1OC(F)(F)F |  |  |  |  |  |  |  |  | Activity [14]: Active |
| COc1ccccc1-c1nc(CNC(=O)c2ccccc2OC(F)F)n[nH]1 | Active | Active | Active | inactive | inactive | inactive | inactive | inactive |  |
| O=C(NCc1cc(-c2cccs2)[nH]n1)c1ccccc1C(F)(F)F |  |  |  |  |  |  |  |  | Activity [15]: Active |
